Starred links: 1 amine or outer side, 2 acyl side, 3 side chain; linkers in the order of their positions; H or OH if unused. Positions of bridges follow the written chain, without caps; N, C: chain ends. Non-standard residues stand in square brackets, D forms with d. Residues, ends and D or L forms follow the SMILES beside them. *: point of attachment. X3 = O=C(O)CCCCCCCCCCCCCCCCC(=O)N[C@@H](CCC(=O)NCCCOCCOCCOCCCN*)C(=O)O; Trp(1-CH2CONHSO2Me) = CS(=O)(=O)NC(=O)Cn1cc(C[C@H](N)C(=O)O)c2ccccc21; X1 = O=C(O)CCCCCCCCCCCCCCC(=O)N[C@@H](CCC(=O)NCCCOCCOCCOCCCN*)C(=O)O; X4 = O=C(O)Cn1nc(C[C@H](N[*:1])C(=O)[*:2])c2ccccc21; Hyp = O=C(O)[C@@H]1C[C@@H](O)CN1; NMeNle = CCCC[C@H](NC)C(=O)O; NMeA = CN[C@@H](C)C(=O)O; Dab = NCC[C@H](N)C(=O)O; Dap = NC[C@H](N)C(=O)O; Sar = CNCC(=O)O

T1 sequence (Q9NZQ7 with tags, fused parts or gaps): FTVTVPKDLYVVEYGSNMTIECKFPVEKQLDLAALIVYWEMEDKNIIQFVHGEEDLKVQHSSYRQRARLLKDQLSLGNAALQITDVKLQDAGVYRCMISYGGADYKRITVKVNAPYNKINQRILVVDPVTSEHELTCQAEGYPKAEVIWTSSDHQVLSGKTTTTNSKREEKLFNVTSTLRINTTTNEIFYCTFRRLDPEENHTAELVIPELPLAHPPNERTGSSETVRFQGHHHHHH

The assay concerns the target T1, PD-1-Ig binding to PD-L1-TVMV-His (PD-L1-His) (Homo sapiens, UniProt Q9NZQ7).
T1 construct: hPDL1(19-239)-TVMV-His; TVMV protease cleavage site (C); made in house; host or cells: HEK293T cells
The experiment in a line: PD-1/PD-L1 Homogenous Time-Resolved Fluorescence (HTRF) binding assay. Conditions: PD-1-Ig (20 nM) / PD-L1-His (10 nM); range classes; read-out: LE HTRF hPD1 hPDL1 IC50. From the text: Methods for Testing the Ability of Macrocyclic Peptides to Compete for the Binding of Pd-1 to Pd-L1 Using Homogenous Time-Resolved Fluorescence (HTRF) Binding Assays
The ability of the macrocyclic peptides of the present disclosure to bind to PD-L1 was investigated using a PD-1/PD-L1 Homogenous Time-Resolved Fluorescence (HTRF) binding assay.
Homogenous Time-Resolved Fluorescence (HTRF) Assays of Binding of Soluble PD-1 to Soluble PD-L1. Soluble PD-1 and soluble PD-L1 refers to proteins with carboxyl-end truncations that remove the transmembrane-spanning regions and are fused to heterologous sequences, specifically the Fc portion of the human immunoglobuling G sequence (Ig) or the hexahistidine epitope tag (His). All binding studies were performed in an HTRF assay buffer consisting of dPBS supplemented with 0.1% (w/v) bovine serum albumin and 0.05% (v/v) Tween-20. For the PD-1-Ig/PD-L1-His binding assay, inhibitors were pre-incubated with PD-L1-His (10 nM final) for 15 m in 4 μl of assay buffer, followed by addition of PD-1-Ig (20 nM final) in 1 μl of assay buffer and further incubation for 15 m. PD-L1 fusion proteins from either human, cynomologous macaques, mouse, or other species were used. HTRF detection was achieved using europium crypate-labeled anti-Ig monoclonal antibody (1 nM final) and allophycocyanin (APC) labeled anti-His monoclonal antibody (20 nM final). Antibodies were diluted in HTRF detection buffer and 5 μl was dispensed on top of binding reaction. The reaction was allowed to equilibrate for 30 minutes and signal (665 nm/620 nm ratio) was obtained using an EnVision fluorometer. Additional binding assays were established between PD-1-Ig/PD-L2-His (20 and 5 nM, respectively), CD80-His/PD-L1-Ig (100 and 10 nM, respectively) and CD80-His/CTLA4-Ig (10 and 5 nM, respectively). Binding/competition studies between biotinylated Compound No. 71 and human PD-L1-His were performed as follows. Macrocyclic peptide inhibitors were pre-incubated with PD-L1-His (10 nM final) for 60 minutes in 4 μl of assay buffer followed by addition of biotinylated Compound No. 71 (0.5 nM final) in 1 μl of assay buffer. Binding was allowed to equilibrate for 30 minutes followed by addition of europium crypated labeled Streptavidin (2.5 pM final) and APC-labeled anti-His (20 nM final) in 5 μl of HTRF buffer. The reaction was allowed to equilibrate for 30 m and signal (665 nm/620 nm ratio) was obtained using an EnVision fluorometer.
Recombinant Proteins. Carboxyl-truncated human PD-1 (amino acids 25-167) with a C-terminal human Ig epitope tag [hPD-1 (25-167)-3S-IG] and human PD-L1 (amino acids 18-239) with a C-terminal His epitope tag [hPD-L1(19-239)-tobacco vein mottling virus protease cleavage site (TVMV)-His] were expressed in HEK293T cells and purified sequentially by recombinant Protein A affinity chromatography and size exclusion chromatography. Human PD-L2-His (Sino Biologicals), CD80-His (Sino Biologicals), CTLA4-Ig (RnD Systems) were all obtained through commercial sources.
Ranges are as follows: A=0.010-0.060 μM; B=0.0011-0.009 μM; C=0.0003-0.0010 μM.
(In general: In TR-FRET formats the signal depends on donor and acceptor labels being close together.)
Broadly, the IC50 is the concentration that inhibits the measured activity by half. With `CCCC[C@H]1C(=O)N(C)[C@@H](CCCC)C(=O)N[C@@H](CC(C)C)C(=O)N[C@H](C(=O)NCC(=O)NCCCOCCOCCOCCCNC(=O)CC[C@H](NC(=O)CCCCCCCCCCCCCCCCC(=O)O)C(=O)O)CSCC(=O)N[C@@H](Cc2ccc(O)cc2)C(=O)N(C)[C@@H](C)C(=O)N[C@@H](CC(N)=O)C(=O)N2CCC[C@H]2C(=O)N[C@@H](CN)C(=O)N[C@@H](CC(C)C)C(=O)N2C[C@H](O)C[C@H]2C(=O)N[C@@H](Cc2c[nH]c3ccccc23)C(=O)N[C@@H](CCN)C(=O)N[C@@H](Cc2cn(CC(=O)NS(C)(=O)=O)c3ccccc23)C(=O)N1C` [Example 3] ({CH2CO}-Y[NMeA]NP[Dap]L[Hyp]W[Dab][Trp(1-CH2CONHSO2Me)][NMeNle][NMeNle]LCG-X3; thioether N-14), the IC50 lay within 1.1 to 9 nM.
The same measure for `CCCC[C@H]1C(=O)N(C)[C@@H](CCCC)C(=O)N[C@@H](CC(C)C)C(=O)N[C@H](C(=O)NCC(=O)N[C@@H](CC(=O)NCCCOCCOCCOCCCNC(=O)CC[C@H](NC(=O)CCCCCCCCCCCCCCC(=O)O)C(=O)O)C(=O)O)CSCC(=O)N[C@@H](Cc2ccc(O)cc2)C(=O)N(C)[C@@H](C)C(=O)N[C@@H](CC(N)=O)C(=O)N2CCC[C@H]2C(=O)N[C@@H](CN)C(=O)N[C@@H](CC(C)C)C(=O)N2C[C@H](O)C[C@H]2C(=O)N[C@@H](Cc2c[nH]c3ccccc23)C(=O)N[C@@H](CCN)C(=O)N[C@@H](Cc2nn(CC(=O)O)c3ccccc23)C(=O)N1C` [Example 17] ({CH2CO}-Y[NMeA]NP[Dap]L[Hyp]W[Dab][X4][NMeNle][NMeNle]LCGD(X1)-OH; thioether N-14): 1.1 to 9 nM; for `CCCC[C@H]1C(=O)N(C)[C@@H](CCCC)C(=O)N[C@@H](CC(C)C)C(=O)N[C@H](C(=O)N[C@@H](Cc2cn(CCOCCOCCOCCOCCOCCOCCOCCOCCOCCOCCOCCNC(=O)CC[C@H](NC(=O)CCCCCCCCCCCCCCCCC(=O)O)C(=O)O)nn2)C(=O)O)CSCC(=O)N[C@@H](Cc2ccc(O)cc2)C(=O)N(C)[C@@H](C)C(=O)N[C@@H](CC(N)=O)C(=O)N2CCC[C@H]2C(=O)N[C@@H](CN)C(=O)N[C@@H](CC(C)C)C(=O)N2C[C@H](O)C[C@H]2C(=O)N[C@@H](Cc2c[nH]c3ccccc23)C(=O)N[C@@H](CCN)C(=O)N[C@@H](Cc2nn(CC(=O)O)c3ccc(OC)cc23)C(=O)N1C` [Example 24]: 0.3 to 1 nM.
The same measure for `CCCC[C@H]1C(=O)N(C)[C@@H](CCCC)C(=O)N[C@@H](CC(C)C)C(=O)N[C@H](C(=O)NCC(=O)NCCCOCCOCCOCCCNC(=O)CC[C@H](NC(=O)CCCCCCCCCCCCCCCCC(=O)O)C(=O)O)CSCC(=O)N[C@@H](Cc2ccc(O)cc2)C(=O)N(C)[C@@H](C)C(=O)N[C@@H](CC(N)=O)C(=O)N(C)CC(=O)N[C@@H](CN)C(=O)N[C@@H](CC(C)C)C(=O)N2C[C@H](O)C[C@H]2C(=O)N[C@@H](Cc2c[nH]c3ccccc23)C(=O)N[C@@H](CCN)C(=O)N[C@@H](Cc2cn(CC(=O)NS(C)(=O)=O)c3ccccc23)C(=O)N1C` [Example 4] ({CH2CO}-Y[NMeA]N[Sar][Dap]L[Hyp]W[Dab][Trp(1-CH2CONHSO2Me)][NMeNle][NMeNle]LCG-X3; thioether N-14): 1.1 to 9 nM; for `CCCC[C@H]1C(=O)N(C)[C@@H](CCCC)C(=O)N[C@@H](CC(C)C)C(=O)N[C@H](C(=O)NCC(=O)N[C@@H](CC(=O)NCCCOCCOCCOCCCNC(=O)CC[C@H](NC(=O)CCCCCCCCCCCCCCCCC(=O)O)C(=O)O)C(=O)O)CSCC(=O)N[C@@H](Cc2ccc(O)cc2)C(=O)N(C)[C@@H](C)C(=O)N[C@@H](CC(N)=O)C(=O)N(C)CC(=O)N[C@@H](CN)C(=O)N[C@@H](CC(C)C)C(=O)N2C[C@H](O)C[C@H]2C(=O)N[C@@H](Cc2c[nH]c3ccccc23)C(=O)N[C@@H](CCN)C(=O)N[C@@H](Cc2nn(CC(=O)O)c3ccccc23)C(=O)N1C` [Example 6] ({CH2CO}-Y[NMeA]N[Sar][Dap]L[Hyp]W[Dab][X4][NMeNle][NMeNle]LCGD(X3)-OH; thioether N-14): 1.1 to 9 nM; for `CCCC[C@H]1C(=O)N(C)[C@@H](CCCC)C(=O)N[C@@H](CC(C)C)C(=O)N[C@H](C(=O)NCC(=O)N[C@@H](Cc2cn(CCOCCOCCOCCOCCOCCOCCOCCOCCOCCOCCOCCNC(=O)CCC(NC(=O)CCCCCCCCCCCCCCCCC(=O)O)C(=O)O)nn2)C(=O)O)CSCC(=O)N[C@@H](Cc2ccc(O)cc2)C(=O)N(C)[C@@H](C)C(=O)N[C@@H](CC(N)=O)C(=O)N2CCC[C@H]2C(=O)N[C@@H](CN)C(=O)N[C@@H](CC(C)C)C(=O)N2C[C@H](O)C[C@H]2C(=O)N[C@@H](Cc2c[nH]c3ccccc23)C(=O)N[C@@H](CCN)C(=O)N[C@@H](Cc2cn(CC(=O)O)c3ccc(OC)cc23)C(=O)N1C` (stereo partly shown) [Example 27]: 0.3 to 1 nM.
`CCCC[C@H]1C(=O)N(C)[C@@H](CCCC)C(=O)N[C@@H](CC(C)C)C(=O)N[C@H](C(=O)NCC(=O)N[C@@H](Cc2cn(CCOCCOCCOCCOCCOCCOCCOCCOCCOCCOCCOCCNC(=O)CCC(NC(=O)CCCCCCCCCCCCCCCCC(=O)O)C(=O)O)nn2)C(=O)O)CSCC(=O)N[C@@H](Cc2ccc(O)cc2)C(=O)N(C)[C@@H](C)C(=O)N[C@@H](CC(N)=O)C(=O)N2CCC[C@H]2C(=O)N[C@@H](CN)C(=O)N[C@@H](CC(C)C)C(=O)N2C[C@H](O)C[C@H]2C(=O)N[C@@H](Cc2c[nH]c3ccccc23)C(=O)N[C@@H](CCN)C(=O)N[C@@H](Cc2cn(CC(=O)O)c3cccnc23)C(=O)N1C` (stereo partly shown) [Example 28]: the IC50 lay within 10 to 60 nM.
The same measure for `CCCC[C@H]1C(=O)N(C)[C@@H](CCCC)C(=O)N[C@@H](CC(C)C)C(=O)N[C@H](C(=O)NCC(=O)N[C@@H](Cc2cn(CCOCCOCCOCCOCCOCCOCCOCCOCCOCCOCCOCCNC(=O)CC[C@H](NC(=O)CCCCCCCCCCCCCCCCC(=O)O)C(=O)O)nn2)C(=O)O)CSCC(=O)N[C@@H](Cc2ccc(O)cc2)C(=O)N(C)[C@@H](C)C(=O)N[C@@H](CC(N)=O)C(=O)N2CCC[C@H]2C(=O)N[C@@H](CN)C(=O)N[C@@H](CC(C)C)C(=O)N2C[C@H](O)C[C@H]2C(=O)N[C@@H](Cc2c[nH]c3ccccc23)C(=O)N[C@@H](CCN)C(=O)N[C@@H](Cc2cn(CC(=O)O)c3ncccc23)C(=O)N1C` [Example 31]: 0.3 to 1 nM.
`CCCC[C@H]1C(=O)N(C)[C@@H](CCCC)C(=O)N[C@@H](CC(C)C)C(=O)N[C@H](C(=O)NCC(=O)N[C@@H](CC(=O)NCCCOCCOCCOCCCNC(=O)CC[C@H](NC(=O)CCCCCCCCCCCCCCC(=O)O)C(=O)O)C(=O)O)CSCC(=O)N[C@@H](Cc2ccc(O)cc2)C(=O)N(C)[C@@H](C)C(=O)N[C@@H](CC(N)=O)C(=O)N2CCC[C@H]2C(=O)N[C@@H](CN)C(=O)N[C@@H](CC(C)C)C(=O)N2C[C@H](O)C[C@H]2C(=O)N[C@@H](Cc2c[nH]c3ccccc23)C(=O)N[C@@H](CCN)C(=O)N[C@@H](Cc2cn(CC(=O)NS(C)(=O)=O)c3ccccc23)C(=O)N1C` [Example 15] ({CH2CO}-Y[NMeA]NP[Dap]L[Hyp]W[Dab][Trp(1-CH2CONHSO2Me)][NMeNle][NMeNle]LCGD(X1)-OH; thioether N-14): the IC50 lay within 1.1 to 9 nM.
The same measure for `CCCC[C@H]1C(=O)N(C)[C@@H](CCCC)C(=O)N[C@@H](CC(C)C)C(=O)N[C@H](C(=O)NCC(=O)N[C@@H](CC(=O)NCCCOCCOCCOCCCNC(=O)CC[C@H](NC(=O)CCCCCCCCCCCCCCCCC(=O)O)C(=O)O)C(=O)O)CSCC(=O)N[C@@H](Cc2ccc(O)cc2)C(=O)N(C)[C@@H](C)C(=O)N[C@@H](CC(N)=O)C(=O)N(C)CC(=O)N[C@@H](CN)C(=O)N[C@@H](CC(C)C)C(=O)N2C[C@H](O)C[C@H]2C(=O)N[C@@H](Cc2c[nH]c3ccccc23)C(=O)N[C@@H](CCN)C(=O)N[C@@H](Cc2cn(CC(=O)NS(C)(=O)=O)c3ccccc23)C(=O)N1C` [Example 2] ({CH2CO}-Y[NMeA]N[Sar][Dap]L[Hyp]W[Dab][Trp(1-CH2CONHSO2Me)][NMeNle][NMeNle]LCGD(X3)-OH; thioether N-14): 1.1 to 9 nM.

The values above are taken from patent US11066445B2, “Immunomodulators acting as antagonists of PD-1” (Bristol-Myers Squibb Company, priority 2017, dated 2021).
